Assay [1] relates to Kwangan soybean (non-transformed). Nature of the assay: Herbicide tolerance of soybean. The class given is in vivo. To be noted: 5 μM painted on leaves, 7 days.
Assay [2] deals with PPO-deficient BT3 E. coli (ΔPPO) with CyPPO13 wild type (Cy13 WT, SEQ ID NO: 4). In words: Growth of transformed BT3 (ΔPPO) on tiafenacil media. The class given is cell-based. Here is the method:
(§1) After transforming PPO-deficient BT3 E. coli (ΔPPO) with CyPPO10 or CyPPO13, the transformed BT3 (ΔPPO) was cultured on LB agar plates containing PPO-inhibiting herbicide to examine the growth level of the transformed BT3 (ΔPPO). BT3 (ΔPPO) strain was obtained from Hokkaido University (Japan). The BT3 (ΔPPO) strain is deficient in hemG-type PPO and has kanamycin tolerance (refer to “Watanabe et al., Dual targeting of spinach protoporphyrinogen oxidase II to mitochondria and chloroplasts by alternative use of two in-frame […], JBC 2001 276(23):20474-20481; Che et al., Molecular Characterization and Subcellular Localization of Protoporphyrinogen Oxidase in Spinach Chloroplasts, Plant Physiol. 2000 September; 124(1):59-70”).
(§2) CyPPO10 and CyPPO13 genes were cloned in pACBB vector (Plasmid #32551; Addgene; refer to FIG. 1).
(§3) For seed culture of E. coli transformed with respective genes, each single colony of E. coli transformant as provided above was cultured in 3 ml of LB broth containing chloramphenicol overnight (220 rpm, 37° C.), and 50 to 100 μl were subcultured in a new 3 ml of LB broth, and they were cultured until absorbance (OD600) became 0.5 to 1, and they were diluted with LB broth to absorbance (OD600) of 0.5. The diluted solution was serially diluted again 5 times by a factor of one tenth with LB broth. […] The LB Agar media were incubated at 37° C., under light condition, and level of inhibiting growth was observed after 16 to 20 hours of incubation.

For assay [3], the system named is PPO-deficient BT3 E. coli (ΔPPO) with CyPPO10 wild type (Cy10 WT, SEQ ID NO: 2). The assay is described as above. The class given is cell-based. Here is the method:
as §1, §2, §3

Assay [4] relates to BT3 (ΔPPO) E. coli with CyPPO10m-6 (E225G, G258S, Q266L, T336I, V356F, F360M, A364D, R406G, W419R; SEQ ID NO: 131). In words: Growth of BT3 with error-prone PCR mutant of CyPPO10. The class given is cell-based. To be noted: up to 200 μM herbicide.
Assay [5] has as its system soybean transformed with CyPPO10 A167L+F360M. Nature of the assay: Herbicide tolerance of soybean. The class given is in vivo.
The subject of assay [6] is A. thaliana transformants with CyPPO10 or CyPPO13 or variants. In words: Herbicide tolerance of A. thaliana transformants (T1). To be noted: 1 μM spray. It counts as in vivo, Arabidopsis thaliana. An excerpt: A. thaliana was transformed with a binary vector having ORF of a selectable marker, bar gene (glufosinate-tolerant), and that of each encoding gene of CyPPO10 or CyPPO13 variants. The transgenic plant was examined for cross-tolerance towards glufosinate and PPO-inhibiting herbicides. The bar gene was also used to examine whether the transgene was stably inherited during generations. NOS promoter and E9 terminator were used for bar gene expression.

Assay [7] relates to wild type A. thaliana (Col-0 ecotype). Nature of the assay: Herbicide injury of A. thaliana plants. The class given is in vivo, Arabidopsis thaliana. To be noted: 1 μM spray, within 7 days. Here is the method: For comparison, the same test was conducted using the wild type A. thaliana (Col-0 ecotype).

Each structure is given as a SMILES string.

On to `COC(=O)CCNC(=O)C(C)Sc1cc(-n2c(=O)cc(C(F)(F)F)n(C)c2=O)c(F)cc1Cl` (stereo not shown) [Tiafenacil], for which the leaf damage result is listed as “severe damage” in assay [1] and “no damage” in assay [5] (T0, 15 μM painted on leaves). Moreover, the growth result in assay [2] (100 μM tiafenacil) is listed as “at the similar level to that of the medium containing no tiafenacil”; in assay [2] (400 μM tiafenacil), “grew well”; in assay [3] (100 μM tiafenacil), “at the similar level to that of the medium containing no tiafenacil”; in assay [3] (400 μM tiafenacil) it was “grew well”. The cell viability entry in assay [4] is given as “cell viability similar to that of cells with wild type CyPPO10”. Also, the damage level entry in assay [5] (T1, 25 μM tiafenacil spray, 5 days) was “no damage”. For the same molecule, the plant damage entry in assay [6] was “no damage”; in assay [7], “completely died”.
